According to US7368279B2, “Three dimensional bioengineered smooth muscle tissue and sphincters and methods therefor” (The Regents of The University of Michigan, priority 2004, dated 2008):

Tests used:
bioengineered IAS rings [1] = experiment: Isometric force (contraction/relaxation) of bioengineered IAS rings; format: cell-based, rabbit
Experimental: Excitability and contractility of bioengineered IAS rings was measured using techniques adapted from previous work (Dennis et al., In Vitro Cellular & Developmental Biology Animal 36: 327-335, 2000. Dennis et al., American Journal of Physiology Cell Physiology 280: C288-C295, 2001). The diameter of the sphincter rings was measured and used to calculate cross-sectional area (CSA). The bioengineered sphincters were separated from their molds using forceps (FIG. 1 Panel E) and the minimum ring diameter was measured using a calibrated eyepiece and a 5× or 10× objective lens on an inverted microscope (Zeiss Axiovert 25, Thornwood, N.Y.). The cross section was circular, and therefore the CSA was calculated using the measured diameter. To measure the passive baseline force, the differentiation media in the plate containing the bioengineered sphincter was replaced with 37° C. Krebs solution (NaCl (119 mM), KCl (4.6 mM), NaHCO3 (15 mM), CaCl2 (1.5 mM), MgCl2 (1.2 mM), […], and glucose (11 mM)) and the plate was placed on a heated aluminum platform, which maintained a temperature of 37° C. until the testing was complete. For contractility measurements, one end of the bioengineered sphincter was anchored by a stainless steel pin (10 mm×0.1 mm diameter) to the PDMS substrate within the plate, while another stainless steel pin was bent in the shape of a hook and attached by canning wax to a force transducer (resolution of 1.4 μN and range of 2mN) as previously described (Dennis et al., In Vitro Cellular & Developmental Biology Animal 36: 327-335, 2000, Macpherson et al., J Physiol 500: 523-533, 1997) and as depicted in FIG. 1 (Panels F and G). The bioengineered sphincter was stretched approximately 50% of its resting length using a three-axis micromanipulator. The ring was allowed to sit for 20 minutes in order to reestablish a stable baseline level of force (Pb), which was measured as the average baseline passive force preceding stimulation. All force measurements were collected at 100 samples/second for 60 seconds and recorded using a computer with LabVIEW data acquisition software (National Instruments, Austin, Tex.). A median filter of rank 2 was applied to all raw force data before being stored to minimize digitization noise without causing a phase delay for rapidly changing forces. The peak isometric force (ΔP) was determined by subtracting the Pb from the total force values. Specific force (sΔP) was calculated by dividing ΔP by the CSA. Data analysis was done using LabVIEW and Microsoft Excel software programs. Each measurement was repeated at least three times and the mean value was recorded. Contractions were induced in the rings by the addition of acetylcholine. Dose-response relationships of acetylcholine were investigated in the range of 10^−6M to 10^−10M. Incremental doses of acetylcholine were added after the maximal response of the preceding concentration and the establishment of a new baseline. Relaxation response in the rings was induced by the addition of 8-Bromoadenosine 3′:5′-Cyclic Monophosphate (8-br-cAMP). Maximal relaxation was achieved after approximately 4 minutes and therefore relaxation measurements are collective of four consecutive 1-minute data recordings.

bioengineered IAS rings [2] = experiment: Isometric force of bioengineered IAS rings from adult, old and phosphomimic-HSP27 transfected old rat cells; format: cell-based
Experimental: To measure the passive baseline force, the differentiation media in the plate containing the bioengineered sphincter was replaced with 37° C. Krebs solution (NaCl (119 mM), KCl (4.6 mM), NaHCO3 (15 mM), CaCl2 (1.5 mM), MgCl2 (1.2 mM), […], and glucose (11 mM)) and the plate was placed on a heated aluminum platform, which maintained a temperature of 37° C. until the testing was complete. For contractility measurements, one end of the bioengineered sphincter was anchored by a stainless steel pin (10 mm×0.1 mm diameter) to the PDMS substrate within the plate, while another stainless steel pin was bent in the shape of a hook and attached by canning wax to a force transducer (resolution of 1.4 μN and range of 2mN) as previously described (Dennis et al., In Vitro Cellular & Developmental Biology Animal 36: 327-335, 2000, Macpherson et al., J Physiol 500: 523-533, 1997) and as depicted in FIG. 1 (Panels F and G). The bioengineered sphincter was stretched approximately 50% of its resting length using a three-axis micromanipulator. The ring was allowed to sit for 20 minutes in order to reestablish a stable baseline level of force (Pb), which was measured as the average baseline passive force preceding stimulation. All force measurements were collected at 100 samples/second for 60 seconds and recorded using a computer with LabVIEW data acquisition software (National Instruments, Austin, Tex.). A median filter of rank 2 was applied to all raw force data before being stored to minimize digitization noise without causing a phase delay for rapidly changing forces. The peak isometric force (ΔP) was determined by subtracting the Pb from the total force values. Specific force (sΔP) was calculated by dividing ΔP by the CSA. Data analysis was done using LabVIEW and Microsoft Excel software programs. Each measurement was repeated at least three times and the mean value was recorded. Bioengineered sphincter rings using smooth muscle cells isolated from IAS of adult and old rats were generated as described in Example 2 to study the molecular mechanism of aging on sphincteric smooth muscle. […] This corresponds to the previously described acetylcholine-induced contraction of human IAS muscle strips (16, 17, 27). […] Phosphomimic-HSP27 was introduced into the sphincteric smooth muscle cells from old rats. […] To test this hypothesis on a physiological level, bioengineered sphincter rings were made from phosphomimic-HSP27 transfected-IAS smooth muscle cells of old rats and the contractile response was assessed.

`CC(=O)OCC[N+](C)(C)C` [acetylcholine] was tested, and the “concentration at which the concentration-dependent contractile response reaches a plateau” value (bioengineered IAS rings [1]; 10-fold incremental doses 10^−10 M to 10^−6 M) was 10^−7 M, the “peak isometric force ΔP” value (bioengineered IAS rings [1]; 10^−7 M acetylcholine, Krebs buffer, sustained for 4 minutes) was 9.8±3.8 μN and the “maximal ΔP induced by acetylcholine stimulation” value (bioengineered IAS rings [1]; Krebs buffer) was 33.7 μN. The “maximum force of old rings, fold less than adult rings (FIG. 5 panel B)” value (bioengineered IAS rings [2]; 10^−6 M acetylcholine) was “approximately 3 fold”, the “average ΔP / force generated” value (bioengineered IAS rings [2]; adult rat IAS rings, 10^−6 M acetylcholine) was 8.925±2.4 μN and the “maximum force generated (FIG. 5 panel A)” value (bioengineered IAS rings [2]; adult rat rings, n=3) was 10.4±1.27. The force generated (bioengineered IAS rings [2]; old rat IAS rings, 10^−6 M acetylcholine) was 5.55±1.1 μN, the “maximum force generated (FIG. 5 panel A)” value (bioengineered IAS rings [2]; old rat rings, n=4) was 5.5±1.09 and the “less force generated by old rings than adult rings” value (bioengineered IAS rings [2]; stimulated with acetylcholine) was “approximately 50%”.
